Measured values from patent publication US9992981B2, “Optogenetic control of reward-related behaviors” (The Board of Trustees of the Leland Stanford Junior …, priority 2010, dated 2018).
Read-outs that look alike come from different tables or passages of the source.

Columns and labels:
MSNs = assay: IPSCs in MSNs during photostimulation of ChR2-expressing ChAT neurons in acute NAc slices; type: cell-based, mice
Experimental: Coronal cerebral brain slices were prepared from adult mice with virus previously injected (>2 weeks prior to slicing), using standard techniques in strict accordance with a protocol approved by the Animal Care and Use Committee at Stanford University. Coronal slices 250 μm thick were cut with a vibratome using a sapphire blade in ice cold N-methyl-D-glucamine (NMDG)-based cutting solution containing 135 mM NMDG, 1 mM KCl, 1.2 mM KH2PO4, 20 mM choline bicarbonate, 10 mM glucose, 1.5 mM MgCl2 and 0.5 mM CaCl2. Slices were maintained thereafter in artificial cerebral spinal fluid (ACSF) containing 119 mM NaCl, 2.5 mM KCl, 2.5 mM CaCl2, 1.3 mM MgCl2, 1 mM NaH2PO4, 26.2 mM NaHCO3 and 11 mM glucose. Slices were maintained in ACSF at 37° C. for 30 minutes, and thereafter at room temperature. ACSF was bubbled constantly with 95% O2/5% CO2 and heated to 34° C. for all experiments. Neurons were visualized on an upright microscope (Leica DM-LFSA) equipped with both DIC optics and a filter set for visualizing eYFP using a ×40 water-immersion objective and a charge-coupled device (CCD) camera. Whole-cell recordings were made from neurons using the electrode solution containing 120 mM potassium gluconate, 20 mM HEPES, 10 mM EGTA, 1 mM MgCl2, 2 mM Na-ATP, and 0.2 mM Na-GTP (pH 7.3, 290 mOsm/L); in experiments recording IPSCs, KCl was used to replace potassium gluconate. Pipette resistances were 3-5 MΩ, and recordings were made without series resistance compensation. Membrane potentials have been corrected for the error resulting from the liquid junction potentials. The holding potential (VM) for voltage-clamp experiments was −70 mV. […] […] Photocurrents were evoked using an optical switch with a 300W xenon lamp and either a 470±20 nm or a 580±20 nm bandpass filters; light power at the specimen was 11.52 mW mm^−2 (470 nm) or 10.64 mW mm^−2 (580 nm). Currents filtered at 2 kHz, digitized at 50 kHz, and recorded to disk using pClamp10 software (Axon Instruments).

ChAT neurons = assay: Cocaine response of ChAT cells in slice (spontaneous firing); type: cell-based, mice; settings: 5 μM cocaine bath, at 10 min; baseline 0.60±0.41 Hz; n=7
Experimental: Coronal cerebral brain slices were prepared from adult mice with virus previously injected (>2 weeks prior to slicing), using standard techniques in strict accordance with a protocol approved by the Animal Care and Use Committee at Stanford University. Coronal slices 250 μm thick were cut with a vibratome using a sapphire blade in ice cold N-methyl-D-glucamine (NMDG)-based cutting solution containing 135 mM NMDG, 1 mM KCl, 1.2 mM KH2PO4, 20 mM choline bicarbonate, 10 mM glucose, 1.5 mM MgCl2 and 0.5 mM CaCl2. Slices were maintained thereafter in artificial cerebral spinal fluid (ACSF) containing 119 mM NaCl, 2.5 mM KCl, 2.5 mM CaCl2, 1.3 mM MgCl2, 1 mM NaH2PO4, 26.2 mM NaHCO3 and 11 mM glucose. Slices were maintained in ACSF at 37° C. for 30 minutes, and thereafter at room temperature. ACSF was bubbled constantly with 95% O2/5% CO2 and heated to 34° C. for all experiments. Neurons were visualized on an upright microscope (Leica DM-LFSA) equipped with both DIC optics and a filter set for visualizing eYFP using a ×40 water-immersion objective and a charge-coupled device (CCD) camera. […] Currents filtered at 2 kHz, digitized at 50 kHz, and recorded to disk using pClamp10 software (Axon Instruments).

[1] = system: ChAT interneurons of the NAc; assay: Conditioned place preference (CPP); type: in vivo, mice
[2] = after 15 minutes, cited from earlier work
[3] = Wavelength sensitivity of identified opsins (Tables 1 and 2); settings: Table 1, opsins for inhibition

Molecule: Br.COc1ccc(-c2ccc(=N)n(CCCC(=O)O)n2)cc1 [SR-95531]
- effect on light-evoked synaptic currents in MSN (MSNs; SR-95531 (5 mM), NBQX and RS-CPP present): blocked

Molecule: CNC1(C)C2CCC(C2)C1(C)C (centres unmarked) [mecamylamine]
- IPSC frequency with light and mecamylamine (MSNs; 10 μM mecamylamine, light alone raised 3.4+/−1.3 Hz to 10.1+/−1.2 Hz, 470 nm, 10 Hz): 5.1+/−1.8 Hz
- effect on light-evoked increase of IPSC frequency (MSNs; n=5, P<0.05): attenuated

Molecule: COC(=O)[C@H]1[C@@H](OC(=O)c2ccccc2)C[C@@H]2CC[C@H]1N2C [cocaine, benzoylmethylecgonine]
- firing rate of ChAT neurons after cocaine (ChAT neurons): 1.74±0.56 Hz
- Conditioned side (min), total time on cocaine-paired side on testing day ([1]; ChAT::Cre+ (eNphR3.0 inhibition paired with cocaine), 10 mg/kg): 10.3 min
- Conditioned side (min), total time on cocaine-paired side on testing day ([1]; ChAT::Cre+ (eNphR3.0 inhibition paired with cocaine), 20 mg/kg): 10.7 min
- Conditioned side (min), total time on cocaine-paired side on testing day ([1]; ChAT::Cre+ (eNphR3.0 inhibition paired with cocaine), 40 mg/kg): 10.5 min
- Conditioned side (min), total time on cocaine-paired side on testing day ([1]; ChAT::Cre− control littermates, 10 mg/kg): 8.5 min
- Conditioned side (min), total time on cocaine-paired side on testing day ([1]; ChAT::Cre− control littermates, 20 mg/kg): 14.2 min
- Conditioned side (min), total time on cocaine-paired side on testing day ([1]; ChAT::Cre− control littermates, 40 mg/kg): 9.2 min
- cocaine in the brain ([2]; i.p. 10 mg/kg): 4.7 µM
- cocaine in the brain ([2]; i.p. 20 mg/kg): 9.4 µM

B1: NpHR: halorhodopsin from Natronomonas pharaonis (protein, UniProt P15647 1-291, looked up)
Halorhodopsin: MTETLPPVTESAVALQAEVTQRELFEFVLNDPLLASSLYINIALAGLSILLFVFMTRGLDDPRAKLIAVSTILVPVVSIASYTGLASGLTISVLEMPAGHFAEGSSVMLGGEEVDGVVTMWGRYLTWALSTPMILLALGLLAGSNATKLFTAITFDIAMCVTGLAAALTTSSHLMRWFWYAISCACFLVVLYILLVEWAQDAKAAGTADMFNTLKLLTVVMWLGYPIVWALGVEGIAVLPVGVTSWGYSFLDIVAKYIFAFLLLNYLTSNESVVSGSILDVPSASGTPADD
- Wavelength Sensitivity (max) [3]: 589 nm max

B2: BR: opsin for inhibition, biological origin Halobacterium helobium (protein, UniProt P02945 14-262, looked up)
Bacteriorhodopsin: QAQITGRPEWIWLALGTALMGLGTLYFLVKGMGVSDPDAKKFYAITTLVPAIAFTMYLSMLLGYGLTMVPFGGEQNPIYWARYADWLFTTPLLLLDLALLVDADQGTILALVGADGIMIGTGLVGALTKVYSYRFVWWAISTAAMLYILYVLFFGFTSKAESMRPEVASTFKVLRNVTVVLWSAYPVVWLIGSEGAGIVPLNIETLLFMVLDVSAKVGFGLILLRSRAIFGEAEAPEPSAGDGAAATSD
- Wavelength Sensitivity (max) [3]: 570 nm max
